From patent US20250250251A1, “PIPERIDINYLPYRIDINYLCARBONITRILE DERIVATIVES AS INHIBITORS OF GLUTAMINYL-PEPTIDE CYCLOTRANSFERASE AND GLUTAMINYL-PEPTIDE CYCLOTRANSFERASE LIKE PROTEIN” (Boehringer Ingelheim International GmbH, priority 2024, published 2025)

Columns and labels:
QPCTL = biological target: T1, QPCTL (Homo sapiens, UniProt Q9NXS2); assay: Assay A: biochemical QPCTL activity assay (MALDI-TOF MS, CD47 peptide substrate); conditions: Table 3, prior art compounds, read-out: Inhibition of QPCTL: IC50
T1 construct: made in house
Summary of the method: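 Enzyme and compound pre-incubated 10 min at 24° C in 20 mM Tris pH 7.5 with TCEP, BSA, Tween20, then 40 min with CD47 peptide (10 μM for QPCTL, 20 μM for QPCT). Pyroglutamate product/internal standard ratio by MALDI-TOF MS, normalized to controls; four-parameter logistic fit.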

[1] = system: SIRPα signalling induced by Raji cells; assay: Assay B: SIRPα signalling assay using Raji cells; type: cell-based; conditions: Homo sapiens, Table 5, prior art compounds, read-out: Inhibition of SIRPα signalling induced by Raji cells: IC50
Summary of the method: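 SIRPα signalling induced by Raji cells in a PathHunter reporter line, read as β-galactosidase complementation luminescence. Detection reagent 1 added for 15 min, then reagent 2 for 60 min in the dark, both at room temperature.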

CYP3A4 mRNA = assay: Assay D: CYP induction screening assay in primary human hepatocytes; type: in vitro ADME; conditions: Table 10, prior art compounds, 48 h
Summary of the method: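 Single-donor cryopreserved human hepatocytes on collagen with Matrigel overlay were exposed to test compound at […] (0.1% DMSO) for 48 h, medium renewed at 24 h. CYP3A4 mRNA quantified by QuantiGene Plex/Luminex, normalised to geometric mean of RPL32, EIF4E2, GUSB and expressed relative to solvent control.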

murine hepatocytes = assay: Assay E: stability in murine hepatocytes; type: in vitro ADME, mouse; conditions: Table 13, prior art compounds, 1 μM, 5% species serum
Summary of the method: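 Cryopreserved mouse hepatocytes, typically 1 Mio cells/mL in medium with 5% species serum, were dosed at 1 μM compound (0.05% DMSO) at 37 °C and sampled over 0–6 h. Parent decline was measured by HPLC-MS/MS and CLint calculated from dose/AUC, then scaled by well-stirred liver model.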

isolated QPCTL = isolated QPCTL (Homo sapiens, UniProt Q9NXS2); conditions: as disclosed in WO 2024/020517; read-out: Inhibitory activity on isolated QPCTL, IC50; cited from earlier work
Chain of isolated QPCTL (Q9NXS2 whole entry): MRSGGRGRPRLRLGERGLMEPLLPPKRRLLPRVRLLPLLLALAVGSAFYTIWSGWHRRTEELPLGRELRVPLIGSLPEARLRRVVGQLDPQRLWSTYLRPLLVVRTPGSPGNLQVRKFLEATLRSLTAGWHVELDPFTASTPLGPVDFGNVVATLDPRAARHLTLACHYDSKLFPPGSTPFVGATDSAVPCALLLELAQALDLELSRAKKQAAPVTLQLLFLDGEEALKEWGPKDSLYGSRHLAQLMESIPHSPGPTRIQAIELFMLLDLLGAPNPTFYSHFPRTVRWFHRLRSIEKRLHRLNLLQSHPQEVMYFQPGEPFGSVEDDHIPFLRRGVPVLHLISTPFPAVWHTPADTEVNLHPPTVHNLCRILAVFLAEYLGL

T1 sequence (Q9NXS2 whole entry, species assumed): as the sequence (Q9NXS2 whole entry) above

IC50 (QPCTL): 1 nM
IC50 [1]: 132 nM
n-fold induction of CYP3A4 at 10 μM (CYP3A4 mRNA): 1.7 n-fold
Mouse Hepatocyte Stability QH (murine hepatocytes): 45%
Compound: Cn1cnnc1C1CCN(c2c(-c3ccnnc3)ccc(Cl)c2C#N)CC1 [Compound 33, reference compound]
IC50 (isolated QPCTL): < 100 nM
